Test results as given in BindingDB's records for doi:10.1021/jm00020a011 (Zeneca Pharmaceuticals, 1995).

Assay: Binding affinity towards Acetylcholinesterase

With `CC(C)[C@H](NC(=O)[C@@H]1CCCN1C(=O)[C@@H](NC(=O)c1ccc(C(=O)NS(=O)(=O)c2ccc(Cl)cc2)cc1)C(C)C)C(=O)c1nc2cc(C(N)=O)ccc2o1` [2-{(S)-2-[((S)-1-{(S)-2-[4-(4-Chloro-benzenesulfonylaminocarbonyl)-benzoylamino]-3-methyl-butyryl}-pyrrolidine-2-carbonyl)-amino]-3-methyl-butyryl}-benzooxazole-5-carboxylic acid amide] the Ki was > 2000 µM.
